Measurements published in patent publication US12226479B2, “Methods and compositions of use of CD8+ tumor infiltrating lymphocyte subtypes and gene signatures thereof” (THE GENERAL HOSPITAL CORPORATION, priority 2017, dated 2025).

Test system: B16-F10
Assay: Transplantable B16-F10 melanoma mouse model: tumor growth and survival under CD39 inhibitor and checkpoint antibodies
From the text: A schematic summary of the therapy regimen used in the transplantable B16-F10 mouse model (described in Methods). Mice were divided into four groups (n=10 per group): untreated (vehicle control), anti-TIM3, CD39 inhibitor (CD39i, using POM-1 small molecule) and anti-TIM3 in combination with CD39i. FIG. 26D. Box plots showing the kinetics of tumor growth between the different groups of mice on days +4, +7, +11, +14 and +18 post tumor transplantation. Data in box plots are means±SEM. P-value was determined by unpaired-student's t-test. FIG. 26E. Mean tumor volumes for all 4 groups are shown, means±SEM. FIG. 26F. Survival at day 30 of B16-F10 tumor-bearing mice for all 4 groups. Log-rank P-value is shown. Data shown for C-F represents one out of two independent experiments, n=10 for each group per experiment. ns—not significant.
To that end Applicants used the aggressive B16-F10 melanoma mouse model. Mice were treated with the small molecule POM-1 to block CD39 activity^38, alone or in combination with anti-TIM3 blocking antibodies (FIG. 26C).
Mice and tumor transplant. […] B16-F10 cells (0.5×10^6) were intradermally injected into the right flank using a 30 g needle and tumors were measured every 4 days in two dimensions using a digital caliper. Tumor volume (mm^3) was calculated using the following formula V=(L*W^2)/2 (V=volume, L=tumor length, tumor width). […]

With `O.[Na+].[Na+].[Na+].[Na+].[Na+].[Na+].[O]=[W](=[O])([O-])[O-].[O]=[W](=[O])([O-])[O-].[O]=[W](=[O])([O-])[O-].[O]=[W](=[O])=[O].[O]=[W](=[O])=[O].[O]=[W](=[O])=[O].[O]=[W](=[O])=[O].[O]=[W](=[O])=[O].[O]=[W](=[O])=[O].[O]=[W](=[O])=[O].[O]=[W](=[O])=[O].[O]=[W](=[O])=[O]` [POM-1, polyoxometalate-1] the “tumor growth / tumor size” value (B16-F10 intradermal tumors, CD39 inhibitor and/or anti-TIM3, versus untreated) was “transiently reduced tumor growth until day 14” and the “survival on day 30” value (B16-F10 tumor-bearing mice, n=10 per group, POM-1 5 mg/kg/day i.p., anti-TIM3 100 μg/dose i.p. every 3 days, from day 4) was 10%.
